Data published in patent US20240398823A1, “DUAL INHIBITOR OF HISTONE DEACETYLASE 6 AND HEAT SHOCK PROTEIN 90” (TAIPEI MEDICAL UNIVERSITY, priority 2021, published 2024).

Tests used:
HSP90β = molecular target: T1, HSP90β (Homo sapiens, UniProt P08238); test: HSP90 inhibition assay, FITC-geldanamycin competition fluorescence polarization, HSP90β; assay type: binding; conditions: FITC-GM competition
T1 construct: Reaction Biology Corporation (ran the assay as a service)

[1] = test system: PD-L1 expression in HCT116, LS174T, Mia paca-2, BXPC3, A549 and CT26 cells; test: IFN-γ-induced cell membrane PD-L1 in different cancer cell lines by flow cytometry; assay type: cell-based, human; mouse; conditions: Mia paca-2, BXPC3, A549, CT26, co-treated 48 hours
Experimental: The cells were tested in 6-well plates with 32×10^4 cells/well and co-treated with Compound 75 for 48 hours and analyzed by flow cytometry. Bar, SD. […] The effects of the HSP90/HDAC6 dual inhibitors as described in Synthesis Examples (such as Compounds 63, 64, and 66 to 76) on PD-L1 expression were evaluated. Cells were seeded in 6-well plates (3.2×10^5 cells/well) and treated on the next day with […] and compounds or DMSO (vehicle) at indicated concentrations for 48 h. The treated cells were suspended (3×10^5 cells/tube) and stained with PD-L1 antibody (Invitrogen, Waltham, USA) and FITC-conjugated secondary antibodies on ice for 1 h. The fluorescence signal of the cells was analyzed by FASCalibur flow cytometer and CellQuest software (BD Biosciences, San Jose, CA, USA). Using flow cytometry, whether Compound 75 could downregulate […]-induced PD-L1 performance in different cancer cell lines was evaluated, namely human colorectal cancer cell lines (HCT116 and LS174T), human pancreatic cancer cell lines (Mia paca-2 and BXPC3), human lung cancer cell line (A549) and mouse colorectal cancer cell line (CT26).

[2] = test system: T cells in blood (CD8+, CD4+, Treg); test: Peripheral blood immune cells by flow cytometry in CT26 tumor mice; assay type: in vivo, mouse; conditions: day 25, flow cytometry, 10, 25, 50 mg/kg
Experimental: FIGS. 10A to 10C show immune cell regulation of peripheral blood by Compound 75. BALB/c mice with CT26 tumors were treated with 10, 25 and 50 mg/kg of Compound 75 every two days, and blood was collected from the heart and analyzed by flow cytometry on day 25 for cytotoxicity T cells (CD3+CD8+) (as shown in FIG. 10A), helper T cells (CD3^+CD4^+) (as shown in FIG. 10B) and regulatory T cells (CD3^+CD4^+FOXP3^+) (as shown in FIG. 10C). Data are expressed as mean±S.D. N values greater than 3. * P<0.05; ** P<0.01; *** P<0.001, compared with the control group.
The reasons for the decrease of Treg in blood were further investigated.

[3] = test system: colorectal cancer tumors (CT26); test: CT26 syngeneic tumor growth in immunocompetent Balb/c mice; assay type: in vivo, mouse; conditions: CT26 in Balb/c, 10, 25, 50 mg/kg i.v. every two days
Experimental: Tumor size in each mouse (FIG. 5B) and mean tumor size (FIG. 5C) were measured periodically. Bar, SEM. […] N values greater than 3.
The effects of the HSP90/HDAC6 dual inhibitors as described in Synthesis Examples (such as Compounds 63, 64, and 66 to 76) on syngeneic tumor treatment were evaluated. Female BALB/c mice were subcutaneously implanted with mouse colorectal cancer CT26 cells ([…] cells/mouse) in the left unilateral back. After tumor size reached 50 mm^3, mice were i.v. injected with […], STA9090 (Ganetespib), or anti-PD-1 antibody (clone RMP1-14) (4-8 mice per group). The progression of tumor sizes and body weights was measured twice per week. Tumor volume formula: V (mm^3)=(length×width×height)/2. Mice were sacrificed on day 25, and tumors and blood were collected for the analysis of immune cell populations.
After CT26 was injected subcutaneously into the back of immunocompetent mice (Balb/c), the tumors grew to 50 mm^3. Compound 75 was administered intravenously at 10 mg/kg, 25 mg/kg and 50 mg/kg every two days (FIG. 5A).

CT26 tumor = CT26 tumor model, Compound 75 combined with CPT-11; assay type: in vivo, mouse; conditions: Compound 75 50 mg/kg plus CPT-11 20 mg/kg
Experimental: CT26 was injected subcutaneously into immunocompetent mice (BALB/c). The mice were treated with CPT-11 or combined Compound 75 with CPT-11 when the tumor grew to 50-100 mm^3. CPT-11 was given at 20 mg/kg for 7 consecutive days; compound 75 was given at 50 mg/kg every 2 days (8 doses in total, with suspension after day 14). […] Bar, S.E.M.
Whether Compound 75 could enhance the tumor suppressive effect of chemotherapeutic agents was evaluated. Control (vehicle), CPT-11 (20 mg/kg), or Compound 75 (50 mg/kg) was administered in combination with CPT-11 to mice and sacrificed them on day 25 as shown in FIG. 13A.

HDAC1 = molecular target: T2, HDAC1 (Homo sapiens, UniProt Q13547); test: HDAC enzymes inhibition assay (Reaction Biology), HDAC1; assay type: biochemical; conditions: 10-dose, 3-fold dilution from 10 μM, single experiment
T2 construct: Reaction Biology Corporation (ran the assay as a service)
T2 sequence (Q13547 whole entry): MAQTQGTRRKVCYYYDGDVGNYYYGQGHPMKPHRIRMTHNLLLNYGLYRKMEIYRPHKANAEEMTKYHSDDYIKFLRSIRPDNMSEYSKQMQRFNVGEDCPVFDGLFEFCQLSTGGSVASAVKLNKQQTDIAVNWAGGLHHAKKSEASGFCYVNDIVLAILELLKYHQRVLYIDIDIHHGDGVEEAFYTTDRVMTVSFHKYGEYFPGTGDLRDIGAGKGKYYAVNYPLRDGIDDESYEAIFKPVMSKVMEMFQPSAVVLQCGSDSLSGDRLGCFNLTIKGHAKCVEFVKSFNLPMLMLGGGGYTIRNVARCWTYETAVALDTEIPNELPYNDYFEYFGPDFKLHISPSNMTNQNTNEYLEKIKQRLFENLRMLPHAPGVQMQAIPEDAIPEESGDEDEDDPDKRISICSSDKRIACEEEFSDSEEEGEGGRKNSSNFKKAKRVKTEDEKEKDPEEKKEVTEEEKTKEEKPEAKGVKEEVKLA

T1 sequence (P08238 whole entry): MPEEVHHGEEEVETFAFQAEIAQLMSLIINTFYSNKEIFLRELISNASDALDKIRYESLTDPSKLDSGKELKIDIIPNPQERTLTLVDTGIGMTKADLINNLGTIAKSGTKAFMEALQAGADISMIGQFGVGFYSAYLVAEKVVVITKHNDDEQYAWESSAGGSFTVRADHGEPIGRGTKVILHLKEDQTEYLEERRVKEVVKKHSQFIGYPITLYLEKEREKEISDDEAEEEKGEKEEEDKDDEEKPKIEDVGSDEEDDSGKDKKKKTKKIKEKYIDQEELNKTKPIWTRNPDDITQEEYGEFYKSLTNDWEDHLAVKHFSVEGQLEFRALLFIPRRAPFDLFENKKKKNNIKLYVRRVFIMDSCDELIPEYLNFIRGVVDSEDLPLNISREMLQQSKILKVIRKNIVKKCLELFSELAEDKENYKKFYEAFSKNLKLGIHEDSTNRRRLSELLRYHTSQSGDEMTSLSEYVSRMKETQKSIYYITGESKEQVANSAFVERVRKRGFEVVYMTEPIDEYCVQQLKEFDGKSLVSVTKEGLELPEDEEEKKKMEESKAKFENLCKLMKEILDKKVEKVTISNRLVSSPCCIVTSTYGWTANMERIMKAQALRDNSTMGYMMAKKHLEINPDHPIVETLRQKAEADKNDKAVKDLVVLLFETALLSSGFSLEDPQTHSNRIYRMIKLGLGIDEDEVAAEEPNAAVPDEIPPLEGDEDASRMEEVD

SMILES: COc1ccc(N(Cc2ccc(C(=O)NO)cc2)C(=O)c2cc(C(C)C)c(O)cc2O)cc1 [Compound 75, 2,4-Dihydroxy-N-(4-hydroxycarbamoyl-benzyl)-5-isopropyl-N-(4-methoxy-phenyl)-benzamide]
- IC50 (HSP90β): 66.9 nM
- IFN-γ-induced cell membrane protein PD-L1 expression [1]: inhibits all IFN-7-induced cell membrane protein PD-L1 expression
- immunosuppressive Treg cell level in blood [2]: could be reduced in a concentration dependent manner
- percentage of CD4+ helper T cells in blood [2]: did not affect
- percentage of CD8+ cytotoxicity T cells in blood [2]: did not affect
- growth of colorectal cancer tumors in mice [3]: inhibit the growth of colorectal cancer tumors in mice
- body weight, combined therapy versus CPT-11 alone (CT26 tumor): no significant difference
- tumor suppressive effect in combination with CPT-11 (CT26 tumor; day 25): significantly enhanced the effect of CPT-11 therapy
- IC50 (HDAC1): 616 nM
